# Results published in publication PMC10604720, “Unraveling the Mechanism of Epichaperome Modulation by Zelavespib: Biochemical Insights on Target Occupancy and Extended Residence Time at the Site of Action” (Biomedicines, 2023).
# Test: Biodistribution / PET pharmacokinetics of [124I]-zelavespib in MDA-MB-468 tumor-bearing mice (data of ref 32, refitted to exponential decay)
# Assay type: in vivo, mouse
# Procedure: Iodine-124 is a ‘non-residualizing’ isotope (i.e., free iodine-124 washes out from cells), and therefore, data derived from positron emission tomography imaging of MDA-MB-468-bearing mice that were administered a tracer amount of [^124I]-PU-AD can be used to determine real-time zelavespib concentrations delivered to tumors. Because positron emission tomography provides information on radioactivity and not molar concentrations, radioactivity data from Pillarsetty et al. were transformed into tumor concentrations to calculate the time-dependent zelavespib concentrations in tumors for an administered dose of 50 mg/kg. The drug concentration (in μM) in the tumor water space, [Drugtumor], at the time t post-administration is therefore: [Drugtumor]t=Drugdose·[Atumor]t/100%·1/W·1×10^6/MW µM where Drugdose is the administered drug dose (in mg), [Atumor]t is the activity concentration (in % injected dose per milliliter, %ID/mL) of the surrogate radiotracer, W is the water space of the tissue (in mL/g), MW is the molecular weight of the drug (i.e., zelavespib), and the factor 1 × 10^6 converts the concentration to μM. For the drug zelavespib and the surrogate radiotracer […] co-injected in a ratio of ~1 to 10,000, the drug itself is essentially the only significant form of the drug–surrogate combination in the tumor. Thus, for a co-administered dose of zelavespib (zelavespibdose in mg) and a tracer amount of [^124I]-PU-AD, the drug concentration in the tumor water space (using an average water space, W = 0.8 mL/g, and the molecular weight MW = 512) is: [Zelavespibtumor]t=Zelavespibdose · [Atumor]t/100%·2.44×10^3 µM
# To study the zelavespib–epichaperome interaction in vivo, we selected, for simplicity, an epichaperome-positive tumor model (e.g., subcutaneously xenografted MDA-MB-468 tumors in mice). Using whole-body PET imaging after the injection of ^124I-labeled zelavespib, Pillarsetty et al. reported drug presence in MDA-MB-468 tumors up to 120 h post-single dose administration (~T1/2 = 60 h). Conversely, zelavespib was no longer observed in non-disease, non-metabolizing tissues after ~8 h, clearing rapidly from plasma, paralleled by a similar rapid clearance from normal tissues (i.e., chaperone-positive but epichaperome-negative). In these tumors, a clear relationship between tumor retention, pharmacodynamic effects, and anti-tumor activity was observed, supporting the notion that zelavespib was in residence with its target over the time it resided in these tumors.
# These values are very much in agreement with those reported for zelavespib in human patients. […] Contrasting plasma and normal tissues and organs, the distribution of zelavespib in tumors was best fitted using a bi-exponential model. […] The first phase thus reflects the clearance of systemic agent, while the second is attributable to specific tumor retention.
# Figure 1 Biodistribution of zelavespib in MDA-MB-468 tumor-bearing mice. (a) Biodistribution of [^124I]-Zelavespib in MDA-MB-468 tumors, organs, tissues, and plasma as per ref. [32]. Data are presented as means ± s.d., five mice per time point. Curves for blood, lung, heart, muscle, bone, and brain were fitted using a one-phase decay equation, and kinetics of zelavespib clearance were determined. Tumor curve was fitted to a two-phase exponential decay. k, kfast, and kslow are the rate constants. Half-life (T1/2) is computed as ln(2)/k. […] (b) Illustrative schematic showing the distinct binding kinetics of zelavespib to epichaperomes (slow off-rate) and to chaperone assemblies (fast off-rate). The tumor pharmacokinetics profile recorded in the Phase 2 interval may represent a direct reflection of the in vivo kinetics of target–drug unbinding. koff, kinetic rate constant for dissociation of an epichaperome-zelavespib assembly. Rt, retention time. […]
# [1] = MDA-MB-468 tumor-bearing mice, one-phase exponential decay fit of data of ref 32
# [2] = MDA-MB-468 tumor, bi-exponential fit, Phase 1: 0 to 8 h, data of ref 32
# [3] = MDA-MB-468 tumor, bi-exponential fit, slow terminal clearance phase, data of ref 32
structure (smiles),measurement,setting,value
CC(C)NCCCn1c(Sc2cc3c(cc2I)OCO3)nc2c(N)ncnc21 [zelavespib],"half-life (T1/2), bone",[1],2.84 h
same,"half-life (T1/2), brain",[1],2.65 h
same,"half-life (T1/2), heart",[1],3.10 h
same,"half-life (T1/2), lung",[1],3.37 h
same,"half-life (T1/2), muscle",[1],5.03 h
same,"half-life (T1/2), plasma/blood",[1],4.38 h
same,tumor Phase 1 T1/2,[2],2.87 h
same,tumor Phase 1 rate constant k (kfast),[2],0.241 h⁻¹
same,tumor Phase 2 T1/2,[3],46.8 h
same,tumor Phase 2 rate constant k (kslow),[3],0.015 h⁻¹
